How the values were obtained:
[1] = tested on: apparently healthy men (US male physicians); assay: Physicians' Health Study: randomized, double-blind, placebo controlled trial of aspirin in primary prevention; risk of first myocardial infarction, stratified by baseline C-reactive protein quartile; type: in vivo, human; conditions: 325 mg aspirin on alternate days vs placebo, events prior to Jan. 25, 1988
Method: The Physicians' Health Study is a randomized, double-blind, placebo controlled, 2×2 factorial trial of aspirin and beta-carotene in the primary prevention of cardiovascular disease and cancer. A total of 22,071 US male physicians aged 40 to 84 years in 1982 with no history of myocardial infarction, stroke, transient ischemic attack, or cancer were assigned to one of four treatment groups: 325 mg aspirin on alternate days (Bufferin, provided by Bristol-Myers), 50 mg of beta-carotene on alternate days (Lurotin, provided by BASF Corporation), both, or neither. The aspirin component of the PHS was terminated early on Jan. 25, 1988 primarily due to a statistically extreme 44 percent reduction in risk of first infarction in the aspirin group.^1 The beta-carotene component continued to scheduled termination on Dec. 31, 1995.^2 Hospital records (and for fatal events, death certificates and necropsy reports) were requested for all reported cases of myocardial infarction, stroke, and venous thrombosis. Records were reviewed by a committee of physicians using standardized criteria to confirm or refute reported events. Endpoints reviewers were blinded to treatment assignment. Reported myocardial infarction was confirmed if the event met World Health Organization criteria of symptoms plus either elevated enzymes or characteristic electrocardiographic changes. Silent myocardial infarctions were not included since they could not be dated accurately. Deaths due to coronary disease were confirmed based on autopsy reports, symptoms, circumstances of death, and prior history of coronary disease. Reported stroke was confirmed based on medical records showing neurological deficit of sudden or rapid onset persisting for more than 24 hours or until death. Strokes were classified as ischemic or hemorrhagic. Computed tomography was available for more than 95 percent of confirmed strokes. Reported deep venous thrombosis was confirmed by documentation of a positive venography study or a positive ultrasound study; deep venous thrombosis documented only by impedance plethysmography or Doppler examination without ultrasound were not confirmed. […] Using these methods, we evaluated 543 cases and 543 controls in this prospective nested case-control design. Means or proportions for baseline risk factors were calculated for cases and controls. […] Because C-reactive protein levels are skewed, median levels were computed and the significance of any differences in median values between cases and controls assessed using Wilcoxon's Rank Sum Test. […] Similar models were employed to adjust for measured baseline levels of total and HDL cholesterol, triglyceride, lipoprotein(a), tPA antigen, fibrinogen, D-dimer, and homocysteine. […]

[2] = tested on: apparently healthy men (US male physicians); conditions: whole trial population, 325 mg aspirin on alternate days vs placebo (reference 1); cited from earlier work

**Q.** Which “reduction in risk of myocardial infarction associated with aspirin use” value (from here on “reduction in risk … with aspirin use”) ([1]; first (lowest) quartile of baseline C-reactive protein) does the source give for `CC(=O)Oc1ccccc1C(=O)O` [aspirin] here?
**A.** Its value is 13.9%.

**Q.** What about the “reduction in risk … with aspirin use” value ([1]; fourth (highest) quartile of baseline C-reactive protein) of the same molecule?
**A.** Its value is 55.7%.

**Q.** What about the “reduction in risk … with aspirin use” value ([1]; second quartile of baseline C-reactive protein) of the same molecule?
**A.** Its value is 33.4%.

**Q.** And the “reduction in risk … with aspirin use” value ([1]; third quartile of baseline C-reactive protein)?
**A.** Its value is 46.3%.

**Q.** And the “reduction in risk of first infarction in the aspirin group” value [2]?
**A.** The value was 44%.
